{"source": "patent US20240360122A1", "about": "“POLYMORPHIC FORMS AND SALTS OF A GLP-1R AGONIST” (Terns (Suzhou) Biotechnology Co., Ltd., priority 2023, published 2024)", "format_in_all_cases": "physicochemical", "key": {"[1]": {"experiment": "Approximate solubility in different solvents at RT", "protocol": "For each experiment, approximately 2 mg of sample was added into a 3-mL glass vial. Corresponding solvents were then added stepwise (50/50/200/700/1000 μL) into the vials until the solids were dissolved visually or a total volume of 2 mL was reached. Solubility results summarized in Table 64 to Table 66 were used to guide the solvent selection in polymorph screening design."}, "[2]": {"experiment": "Hygroscopicity by DVS at 25° C.", "protocol": "DVS was measured via a SMS (Surface Measurement Systems) DVS Intrinsic. The relative humidity at 25° C. were calibrated against deliquescence point of LiCl, Mg(NO3)2 and KCl."}, "[3]": {"experiment": "Solubility of Meglumine salt Type A in SGF and FaSSIF at 37° C. with adjusting pH to that of the blank medium", "conditions": "for solubility at 2 h / solubility at 4 h: read-out: S (solubility)", "protocol": "Detailed procedures are as follows.\n1) Added ˜40 mg of sample into a 5-mL glass vial. Add 4 mL of medium. Adjust pH to 1.8 or 6.5 using HCl (1 M) or NaOH (1 M).\n2) Rolled at 37° C. (˜25 rpm). Sample at 1, 2, 4 and 24 hrs.\n3) At each time-point, sample 0.8 mL of solution or suspension into a centrifuge tube prior to centrifugation (12000 rpm, 37° C., 5 min) and filtration through 0.45 μm PTFE membrane.\n4) Adjusted pH of the rest of suspension to 1.8 or 6.5 using HCl (1 M) or NaOH (1 M)."}, "[4]": {"experiment": "Competitive experiments of Type A and Type B in different solvent system at different temperature", "conditions": "different ratio of DMSO/EA system at different temperature"}, "[5]": {"conditions": "pH 1.8, simulated gastric fluid, thermodynamic from solid, SGF, pH adjusted to 1.8, 37° C., read-out: solubility in SGF"}, "[6]": {"conditions": "pH 6.5, thermodynamic from solid, FaSSIF, pH adjusted to 6.5, 37° C., read-out: solubility in FaSSIF"}}, "note": "Structures can show the parent of a compound that is named as a salt. Where two headings read alike, the source gives them in different places.", "data": [{"smiles": "N#Cc1ccc(COc2cccc(C3CCN(Cc4nc5ccc(C(=O)O)cc5n4Cc4cncs4)CC3)n2)c(F)c1", "note": "[Meglumine salt Type A]", "values": [{"measurement": "Approximate solubility", "setting": "[1]; 2-MeTHF, RT", "value": "S < 1.0 mg/mL"}, {"measurement": "Approximate solubility", "setting": "[1]; ACN, RT", "value": "S < 1.0 mg/mL"}, {"measurement": "Approximate solubility", "setting": "[1]; Acetone, RT", "value": "S < 1.1 mg/mL"}, {"measurement": "Approximate solubility", "setting": "[1]; Anisole, RT", "value": "S < 1.1 mg/mL"}, {"measurement": "Approximate solubility", "setting": "[1]; CHCl3, RT", "value": "S < 1.0 mg/mL"}, {"measurement": "Approximate solubility", "setting": "[1]; CPME, RT", "value": "S < 1.0 mg/mL"}, {"measurement": "Approximate solubility", "setting": "[1]; DCM, RT", "value": "S < 1.1 mg/mL"}, {"measurement": "Approximate solubility", "setting": "[1]; EtOAc, RT", "value": "S < 1.1 mg/mL"}, {"measurement": "Approximate solubility", "setting": "[1]; H2O, RT", "value": "S > 44.0 mg/mL"}, {"measurement": "Approximate solubility", "setting": "[1]; IPA, RT", "value": "S < 1.1 mg/mL"}, {"measurement": "Approximate solubility", "setting": "[1]; IPAc, RT", "value": "S < 1.0 mg/mL"}, {"measurement": "Approximate solubility", "setting": "[1]; MIBK, RT", "value": "S < 1.0 mg/mL"}, {"measurement": "Approximate solubility", "setting": "[1]; MTBE, RT", "value": "S < 1.0 mg/mL"}, {"measurement": "Approximate solubility", "setting": "[1]; THF, RT", "value": "S < 1.1 mg/mL"}, {"measurement": "Approximate solubility", "setting": "[1]; Toluene, RT", "value": "S < 1.2 mg/mL"}, {"measurement": "Approximate solubility", "setting": "[1]; n-Heptane, RT", "value": "S < 1.0 mg/mL"}, {"measurement": "water uptake (DVS)", "setting": "[2]; 25° C./80% RH", "value": 1.43, "unit": "%"}, {"measurement": "hygroscopicity", "setting": "[2]; DVS, 25° C.", "value": "slightly hygroscopic"}, {"measurement": "Water uptake at 25° C./80% RH", "setting": "[2]; DVS, 25° C./80% RH", "value": 1.43, "unit": "wt %"}, {"measurement": "For change after DVS", "setting": "[2]; XRPD after DVS test", "value": "No"}, {"measurement": "form change after DVS test (XRPD)", "setting": "[2]; after DVS test", "value": "no form change"}, {"measurement": "S (solubility)", "setting": "[3]; SGF, 37° C., pH adjusted to 1.8, 1 hr", "value": 730, "unit": "µg/mL"}, {"measurement": "solubility at 2 h", "setting": "[3]; pH 1.8, simulated gastric fluid, thermodynamic from solid, SGF, 37° C., pH adjusted to 1.8, 2 hrs", "value": 160, "unit": "µg/mL"}, {"measurement": "solubility at 4 h", "setting": "[3]; pH 1.8, simulated gastric fluid, thermodynamic from solid, SGF, 37° C., pH adjusted to 1.8, 4 hrs", "value": 120, "unit": "µg/mL"}, {"measurement": "solubility at 1 h", "setting": "[3]; [5]", "value": 730, "unit": "µg/mL"}, {"measurement": "solubility at 24 h", "setting": "[3]; [5]", "value": 140, "unit": "µg/mL"}, {"measurement": "solubility at 2 h", "setting": "[3]; pH 6.5, thermodynamic from solid, FaSSIF, 37° C., pH adjusted to 6.5, 2 hrs", "value": 14, "unit": "µg/mL"}, {"measurement": "solubility at 4 h", "setting": "[3]; pH 6.5, thermodynamic from solid, FaSSIF, 37° C., pH adjusted to 6.5, 4 hrs", "value": 11, "unit": "µg/mL"}, {"measurement": "solubility at 1 h", "setting": "[3]; [6]", "value": 29, "unit": "µg/mL"}, {"measurement": "solubility at 24 h", "setting": "[3]; [6]", "value": 6, "unit": "µg/mL"}, {"measurement": "thermodynamic stability, Type A versus Type B", "setting": "[4]", "value": "thermodynamically more stable"}]}]}
